Here are results for eleven compounds from patent US20020037898A1, “Topical micronutrient delivery system and uses thereof” (priority 2000, published 2002).

Where two headings read alike, the source gives them in different places.

For data set [1], the system named is endothelial cells of the blood capillaries. Kind of data set: Erythematous response / vasodilation at the site of topical application.
Method: (§1) After three days, skin was removed from both the site of application and from the abdomen of each animal, and the NAD content was analyzed.
Data set [2] deals with endothelial cells of blood capillaries. As to the kind of experiment: Skin oxygen content by transcutaneous oxygen monitor after topical lotion. The class given is in vivo. The settings on record: lotion applied topically for thirty minutes, then removed.
From the text: In this experiment, a transcutaneous oxygen monitor has been used to determine oxygen content in the skin. A lotion containing the test compound was topically applied for thirty minutes. The lotion was then removed and the transcutaneous oxygen monitor was placed on the surface of the skin. […] Butyl benzoate was chosen as the co-ester.
A short description of data set [3]: physchem.
Method: The lipophilicity is reported as log P values, where P refers to the octanol/water partition coefficient, described supra.
The Poct/w values for these compounds were determined in accordance with Hamisch, et al., J. Chromatog. […] In brief, this HPLC method determines capacity factor (“K′”) for each pronutrient, and also establishes a linear relationship between the logarithm of Poct/w and the logarithm of K′, for short chain pronutrients.
In data set [4] the test system is skin of hairless mice. As to the kind of experiment: Skin NAD content following topical application of niacin pronutrients. The class given is in vivo, female hairless mice (HRS-J). As to conditions: for Effect on NAD content of the abdomen (in words): where the pronutrient was not applied; for Skin NAD content of abdomen / Skin NAD content of abdomen, %: not the site of application; for Skin NAD content of abdomen: 1% in lotion applied to back once per day for three days; for Skin NAD content of abdomen / Skin NAD content of back: hairless mice; for Skin NAD content of abdomen, % / Skin NAD content of back, %: relative to lotion only = 100; for Skin NAD content of abdomen, %: 1% in lotion applied to back; for Skin NAD content of back, % / Skin NAD content of back: site of application, 1% in lotion; for Skin NAD content of back, %: once per day for three days; for Skin NAD content of back: topical once per day for three days; for Effect on skin NAD content at site of application (in words): topical application, back of hairless mice. On the procedure: In animal experiments, female hairless mice (HRS-J, 6-8 weeks old), received daily topical application of nicotinic acid esters, using 200 mg of commercially available “Vanicream” lotion, at a 1.0% (wt/wt) concentration, for three days. Control animals received Vanicream only.
Animals were euthanized, and dorsal and ventral skin samples were then frozen in liquid nitrogen, and stored at −80° C. In order to analyze NAD and protein content, tissue samples were homogenized, in 0.5M, ice cold HClO4, and then centrifuged at 3000 rpm for 15 minutes. The resulting supernatants were neutralized with ice-cold 2M KOH/0.66M KH2PO4, in order to determine NAD. The NAD was determined in accordance with Jacobson, et al., Meth. Enzymol. 280: 221-230 (1997) incorporated by reference, while a commercially available BCA method was used for protein determination.

The subject of data set [5] is endothelial cells of the blood capillaries. The settings on record: in vivo.
Method: as §1

With `COC(=O)c1cccnc1` [1 carbon], in data set [1], the “Erythematous Response” value is listed as “Yes”.
The same measure, in the same setting: next, `CCCCOC(=O)c1cccnc1` [4 carbons]: “Yes”.
Broadly, the chromatographic logP is a lipophilicity value derived from retention on a column. Lower therefore signals a more hydrophilic compound. For `CCCCCCCCOC(=O)c1cccnc1` [8 carbons, octyl nicotinate], the “Skin oxygen content (PO2)” value in data set [2] was “increase in skin oxygen content”. Also, in data set [3], the chromatographic logP is 4.8. In data set [1], the “Erythematous Response” value is reported as “Yes”.
Consider `CCCCCCCCCCOC(=O)c1cccnc1` [10 carbons], for which the “Erythematous Response” value in data set [1] is “Slight”.
In the case of `CCCCCCCCCCCCOC(=O)c1cccnc1` [12 carbons], in data set [4], the “Effect on NAD content of the abdomen (in words)” value (“Effect on NAD content” for short) is reported as “some delivery to the abdomen”; the “Skin NAD content of abdomen” value is listed as 82.6 +/− 14.8 pmol NAD/mg tissue; the “Skin NAD content of abdomen, %” value came out at 137%; the “Skin NAD content of back, %” value is recorded as 141%. Moreover, in data set [4], the “Skin NAD content of back” value is given as 129.4 +/− 15.4 pmol NAD/mg tissue and the “Effect on skin NAD content at site of application (in words)” value (from here on “Effect on skin NAD content at site”) was “increased NAD content”. In addition, in data set [1], the “Erythematous Response” value is reported as “No”.
`CCCCCCCCCCCCCOC(=O)c1cccnc1` [13 carbons]: the “Erythematous Response” value in data set [1] is “No”.
In the case of `CCCCCCCCCCCCCCOC(=O)c1cccnc1` [14 carbons], in data set [4], the “Effect on NAD content” value was “no increase”; the “Skin NAD content of abdomen” value was 55.8 +/− 13.8 pmol NAD/mg tissue; the “Skin NAD content of abdomen, %” value is listed as 92%; the “Skin NAD content of back, %” value turned out to be 181%. For the same compound, in data set [4], the “Skin NAD content of back” value is 165.7 +/− 12.0 pmol NAD/mg tissue and the “Effect on skin NAD content at site” value was “most effective”. Moreover, in data set [1], the “Erythematous Response” value is “No”.
On to `CCCCCCCCCCCCCCCOC(=O)c1cccnc1` [15 carbons], for which, in data set [1], the “Erythematous Response” value is given as “No”.
In the case of `CCCCCCCCCCCCCCCCOC(=O)c1cccnc1` [16 carbons], in data set [4], the “Effect on NAD content” value is “no increase”; the “Skin NAD content of abdomen” value is given as 52.1 +/− 10.4 pmol NAD/mg tissue; the “Skin NAD content of abdomen, %” value worked out at 86%; the “Skin NAD content of back, %” value came out at 120%. For the same compound, in data set [4], the “Skin NAD content of back” value is listed as 109.5 +/− 8.3 pmol NAD/mg tissue and the “Effect on skin NAD content at site” value is “increased NAD content”. In addition, the “Erythematous Response” value in data set [1] is given as “No”.
In the case of `CCCCCCCCCCCCCCCCCCOC(=O)c1cccnc1` [18 carbons], in data set [4], the “Effect on skin NAD content at site” value was “less effective”. Further, in data set [1], the “Erythematous Response” value is listed as “No”.
With `NC(=O)c1cccnc1` [Nicotinamide, reference compound], the “Effect on skin NAD content at site” value in data set [4] is “no effect”. Moreover, in data set [5], the “Erythematous Response” value is listed as “No” and the “Vasodilation at the site of topical application” value is recorded as “does not cause vasodilation”. Moreover, in data set [3], the chromatographic logP is -0.34.
